This note sets out measurements from patent US10391134B2, “Anti-candida compositions and uses thereof” (PharmAlp SA, priority 2014, dated 2019).

Common to all, as to format: cell-based
In series [1] the test system is Candida albicans adhesion on human vaginal epithelial cells (End1/E6E7). Briefly: Inhibitory activity on Candida adhesion on human vaginal epithelial cells. As for the experimental part:
A tissue culture plate of 24 wells was prepared with vaginal epithelial cells. 0.5 ml of a culture of 10^5 cells/ml in keratinocyte SFM were put in each well of a 24-well plate and incubated for 2 days at 37° C. and 5% CO2. Each well was filled (after taking away the vaginal cells growth media) with 1 ml C. albicans culture of 5·10^6 cfu/ml mixed with test substance. As control, the solvent of each test substance was also tested. The plate was incubated at 37° C. for 6 h or 2 h ([…] for Example 2, 2 h for Example 4), permitting Candida cells to adhere to vaginal cells. After incubation the Candida culture was pipetted away from each well, which were then washed 3 times with 0.5 ml PBS. The epithelial cells-Candida layer was treated with a 0.05% trypsin solution (concentration of 1 ml/25 cm^2), which was then neutralized by addition of DMEM with 10% FCS. […] The obtained cell solution was diluted and analyzed with pour plate method (Manuel Suisse des denrées alimentaires, Chapitre 56, 2000, revision partielle 2004): 1 ml of the appropriate dilution was pipetted into an empty Petri dish and about 15-20 ml of SDA, cooled down to 45-50° C., poured over it.
After 24 h incubation at 37° C. the colonies were counted and the result (in cfu/ml) multiplied 1.5 times to obtain the number of adhered cell in each well. […]

Series [2] has as its system human vaginal epithelial cells. Description: Neutral red screening of human cytotoxicity. Particulars: 24 h incubation; positive control and validation component. As for the experimental part: Potential cytotoxicity of the extracts was assayed in the neutral red-screening test using human vaginal epithelial cells at 80% confluence corresponding to 2*10^5 cells per well of 96 wells as follows:
The extracts freshly extracted and stored once frozen were incubated for 24 h with the epithelial cells at different concentrations. At the end of the experiment the cells were washed 3× and incubated with Neutral Red (NR) medium (50 μg/ml) for 3 hours at 37° C., 5.0% CO2/air. A water solution at 0.5% ethanol was used as negative control (present in all samples). […] Cells were then washed and NR quantified. 100% staining intensity indicate intact lysosomal activity. 0% indicates little to no survival of human cells. Results were analysed according to the Hill function. IC50 or concentrations with highest impairment of cell survival were determined.
Desorb solution was prepared in a ratio of water-ethanol-acetic acid glacial (49:50:1; v:v) during 20 min with shaking. Wavelength used for spectrophotometric reading of NR optical density was 540 nm. Test Criteria were that the differences between VC mean; R2>0.85; Point >0%<100%. The results are presented on FIG. 4.

For series [3], the system named is Candida albicans cells (ATCC MYA-2876). Description: Candida growth test (MIC, visual turbidity score). As for the experimental part: Candida albicans cells (ATCC MYA-2876) were incubated in SB (Sabouraud broth, Biolife 4020002) for 24 h at 30° C. and 150 rpm. The obtained culture was enumerated with a Neubauer Improved count chamber and concentration adjusted to 2.5·10^3 cfu/ml by dilution with sterile SB. Vaginal cells (End1/E6E7, ATCC CRL-2615) have been grown in Keratinocyte SFM (Gibco 17005-42) with 0.1 ng/ml human recombinant EGF (Gibco 10450-013), 0.05 mg/ml bovine pituitary extract (Gibco 13028-014) and additional calcium chloride 44.1 mg/L according to instructions by the provider, with media change every 2-3 days.
Minimal inhibitory concentration (MIC) of the plant extracts and antifungal substances was accomplished through tissue culture plates of 96 wells with flat bottom (Becton Dickinson). In each well 100 μl of the 2.5·10^3 cfu/ml Candida albicans culture obtained as described above in SB was mixed with 100 μl plant extract of different concentrations (0.025, 0.083, 0.25, 0.83, 2.5 and 8.3 mg/ml). Together with each dilution series a blank well was prepared with 100 μl culture and 100 μl of 5% ethanol-water solution. Fluconazole (Sigma, F8929) has been taken as positive control. Fluconazole solutions of different concentrations (4, 16, 32, 65, 650 μg/ml) have been freshly prepared prior testing. A well with only broth (100 μl) plus water (100 μl) and a well with broth plus plant extract (100 μl) were also prepared for color control. The plate was then incubated at 37° C. for 24 h and 48 h.
The evaluation of the growth inhibitory activities was conducted by visual observation of the turbidity of the wells and by attribution of a score from 0 (no growth) to 4 (maximal growth, similar to control well). MIC value of a substance is defined as the concentration which permits to reach a score of less than […]. […] In fact, the score of 2 represents an inhibition of Candida concentrations of about 80%. Results are presented on FIG. 2. […]

For Pepstatin A, the “% inhibition (adhesion of Candida albicans to human epithelial cells)” value in series [1] (Table 3, at 1 μM) is 5 (at 1 μM) %.

Consider `CCCCCCCCCCCCOS(=O)(=O)[O-].[Na+]` [SDS], for which the “IC50 neutral red cytotoxicity” value in series [2] is 8 to 25 µg/mL.

With `OC(Cn1cncn1)(Cn1cncn1)c1ccc(F)cc1F` [fluconazole], the “Stability of the growth inhibition effect, 24 h versus 48 h” value in series [3] (Example 1, 24 h and 48 h of treatment) was “maximal effect at 24 h and reduced effects at 48 h”. The “Candida growth score (arbitrary unit, 0 no growth to 4 maximal growth)” value in series [3] (after 48 h incubation, 2 separate runs) is 2 to 3 arbitrary unit. Further, the “Inhibition of Candida growth” value in series [3] (all 5 concentrations applied (4, 16, 32, 65, 650 μg/ml)) is “inhibited Candida growth to a similar degree”. The “Adhesion of Candida, average value (100% = control)” value in series [1] (Example 1, fluconazole at 1 mg/ml, 6 hour incubation) came out at 100%.
